# Reference: paper PMC7311426, “An amphipathic peptide with antibiotic activity against multidrug-resistant Gram-negative bacteria” (Nature Communications, 2020)
# Where two headings read alike, the source gives them in different places.
# Experiments:
# Assay in all cases: microbe, parasite or virus in culture
# P. aeruginosa = details: Pseudomonas aeruginosa
# Method in brief: (§1)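 MICs were scored by eye after 18-20 h static incubation at 37 °C, with bacteria at 5 × 10^5 CFU mL^−1 in MHB. Peptides were serially diluted 2-fold over 12 points, top 128 or 64 μg mL^−1. CAMHB (CLSI) and 1% agarose-MHB variants were also run, at least six replicates.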
# S. aureus = tested on: S. aureus
# Method in brief: as §1
# S. enterica Typhi = details: Salmonella enterica, ATCC14028 / TYPHI, read-out: BMD MIC
# Method in brief: as §1
# [1] = tested on: A. baumannii clinical isolates
# Method in brief: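 MIC90 from CLSI broth microdilution (M07-A9) in two clinical-isolate panels. US panel (331 isolates, 2010-2012): AA139 diluted in 0.01% acetic acid/0.1% BSA. Worldwide panel (445 isolates, 2011-2013, four regions): CAMHB, with 0.002% Tween 80 added for AA139 and polymyxin B.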
# [2] = A. baumannii, worldwide isolates 2011-2013, n = 108
smiles,measurement,setting,value
"C[C@@H](O)[C@H]1C(=O)N2C(C(=O)O)=C(S[C@@H]3CN[C@H](C(=O)N(C)C)C3)[C@H](C)[C@H]12 [Meropenem, meropenem, reference compound]",MIC,"P. aeruginosa; read-out: MIC, broth microdilution, P. aeruginosa UNT 138-1 spontaneous mutant, AA139 selection 4X, plate 1, colony 3, drug-free passage 1",0.06 µg/mL
same,MIC,"P. aeruginosa; read-out: MIC, broth microdilution, P. aeruginosa UNT 138-1 spontaneous mutant, AA139 selection 4X, plate 1, colony 3, drug-free passage 5",0.12 µg/mL
same,MIC,"P. aeruginosa; read-out: MIC, broth microdilution, P. aeruginosa UNT 138-1 spontaneous mutant, AA139 selection 4X, plate 1, colony 4, drug-free passage 1",0.06 µg/mL
same,MIC,"P. aeruginosa; read-out: MIC, broth microdilution, P. aeruginosa UNT 138-1 spontaneous mutant, AA139 selection 4X, plate 1, colony 4, drug-free passage 5",0.12 µg/mL
same,MIC,"P. aeruginosa; read-out: MIC, broth microdilution, P. aeruginosa UNT 138-1 spontaneous mutant, AA139 selection 4X, plate 1, colony 5, drug-free passage 1",0.12 µg/mL
same,MIC,"P. aeruginosa; read-out: MIC, broth microdilution, P. aeruginosa UNT 138-1 spontaneous mutant, AA139 selection 4X, plate 1, colony 5, drug-free passage 5",0.12 µg/mL
same,MIC,"P. aeruginosa; read-out: MIC, broth microdilution, P. aeruginosa UNT 138-1 spontaneous mutant, AA139 selection 4X, plate 1, colony 6, drug-free passage 1",0.06 µg/mL
same,MIC,"P. aeruginosa; read-out: MIC, broth microdilution, P. aeruginosa UNT 138-1 spontaneous mutant, AA139 selection 4X, plate 1, colony 6, drug-free passage 5",0.25 µg/mL
same,MIC,"P. aeruginosa; read-out: MIC, broth microdilution, P. aeruginosa UNT 138-1 spontaneous mutant, AA139 selection 4X, plate 1, colony 7, drug-free passage 1",0.06 µg/mL
same,MIC,"P. aeruginosa; read-out: MIC, broth microdilution, P. aeruginosa UNT 138-1 spontaneous mutant, AA139 selection 4X, plate 1, colony 7, drug-free passage 5",0.12 µg/mL
same,MIC,"P. aeruginosa; read-out: MIC, broth microdilution, P. aeruginosa UNT 138-1 spontaneous mutant, AA139 selection 4X, plate 2, colony 1, drug-free passage 1",0.06 µg/mL
same,MIC,"P. aeruginosa; read-out: MIC, broth microdilution, P. aeruginosa UNT 138-1 spontaneous mutant, AA139 selection 4X, plate 2, colony 1, drug-free passage 5",0.06 µg/mL
same,MIC,"P. aeruginosa; read-out: MIC, broth microdilution, P. aeruginosa UNT 138-1 spontaneous mutant, AA139 selection 4X, plate 2, colony 2, drug-free passage 1",0.25 µg/mL
same,MIC,"P. aeruginosa; read-out: MIC, broth microdilution, P. aeruginosa UNT 138-1 spontaneous mutant, AA139 selection 4X, plate 2, colony 2, drug-free passage 5",0.12 µg/mL
same,MIC,"P. aeruginosa; read-out: MIC, broth microdilution, P. aeruginosa UNT 138-1 spontaneous mutant, AA139 selection 4X, plate 2, colony 3, drug-free passage 1",0.12 µg/mL
same,MIC,"P. aeruginosa; read-out: MIC, broth microdilution, P. aeruginosa UNT 138-1 spontaneous mutant, AA139 selection 4X, plate 2, colony 3, drug-free passage 5",0.12 µg/mL
same,MIC,"P. aeruginosa; read-out: MIC, broth microdilution, P. aeruginosa UNT 138-1 spontaneous mutant, AA139 selection 4X, plate 2, colony 4, drug-free passage 1",0.12 µg/mL
same,MIC,"P. aeruginosa; read-out: MIC, broth microdilution, P. aeruginosa UNT 138-1 spontaneous mutant, AA139 selection 4X, plate 2, colony 4, drug-free passage 5",0.12 µg/mL
same,MIC,"P. aeruginosa; read-out: MIC, broth microdilution, P. aeruginosa UNT 138-1 spontaneous mutant, AA139 selection 4X, plate 2, colony 5, drug-free passage 1",0.5 µg/mL
same,MIC,"P. aeruginosa; read-out: MIC, broth microdilution, P. aeruginosa UNT 138-1 spontaneous mutant, AA139 selection 4X, plate 2, colony 5, drug-free passage 5",0.12 µg/mL
same,MIC,"P. aeruginosa; read-out: MIC, broth microdilution, P. aeruginosa UNT 138-1 spontaneous mutant, AA139 selection 4X, plate 2, colony 6, drug-free passage 1",0.5 µg/mL
same,MIC,"P. aeruginosa; read-out: MIC, broth microdilution, P. aeruginosa UNT 138-1 spontaneous mutant, AA139 selection 4X, plate 2, colony 6, drug-free passage 5",0.12 µg/mL
same,MIC,"P. aeruginosa; read-out: MIC, broth microdilution, P. aeruginosa UNT 138-1 spontaneous mutant, AA139 selection 4X, plate 2, colony 7, drug-free passage 1",0.06 µg/mL
same,MIC,"P. aeruginosa; read-out: MIC, broth microdilution, P. aeruginosa UNT 138-1 spontaneous mutant, AA139 selection 4X, plate 2, colony 7, drug-free passage 5",0.12 µg/mL
same,MIC,"P. aeruginosa; read-out: MIC, broth microdilution, P. aeruginosa UNT 138-1 spontaneous mutant, AA139 selection 8X, plate 1, colony 1, drug-free passage 1",0.06 µg/mL
same,MIC,"P. aeruginosa; read-out: MIC, broth microdilution, P. aeruginosa UNT 138-1 spontaneous mutant, AA139 selection 8X, plate 1, colony 1, drug-free passage 5",0.06 µg/mL
same,MIC,"P. aeruginosa; read-out: MIC, broth microdilution, P. aeruginosa UNT 138-1 spontaneous mutant, AA139 selection 8X, plate 1, colony 2, drug-free passage 1",0.06 µg/mL
same,MIC,"P. aeruginosa; read-out: MIC, broth microdilution, P. aeruginosa UNT 138-1 spontaneous mutant, AA139 selection 8X, plate 1, colony 2, drug-free passage 5",0.12 µg/mL
same,MIC,"P. aeruginosa; read-out: MIC, broth microdilution, P. aeruginosa UNT 138-1 spontaneous mutant, AA139 selection 8X, plate 1, colony 3, drug-free passage 1",0.12 µg/mL
same,MIC,"P. aeruginosa; read-out: MIC, broth microdilution, P. aeruginosa UNT 138-1 spontaneous mutant, AA139 selection 8X, plate 1, colony 3, drug-free passage 5",0.12 µg/mL
same,MIC,"P. aeruginosa; read-out: MIC, broth microdilution, P. aeruginosa UNT 138-1 spontaneous mutant, AA139 selection 8X, plate 1, colony 4, drug-free passage 1",0.12 µg/mL
same,MIC,"P. aeruginosa; read-out: MIC, broth microdilution, P. aeruginosa UNT 138-1 spontaneous mutant, AA139 selection 8X, plate 1, colony 4, drug-free passage 5",0.12 µg/mL
same,MIC,"P. aeruginosa; read-out: MIC, broth microdilution, P. aeruginosa UNT 138-1 spontaneous mutant, AA139 selection 8X, plate 1, colony 5, drug-free passage 1",0.06 µg/mL
same,MIC,"P. aeruginosa; read-out: MIC, broth microdilution, P. aeruginosa UNT 138-1 spontaneous mutant, AA139 selection 8X, plate 1, colony 5, drug-free passage 5",0.06 µg/mL
same,MIC,"P. aeruginosa; read-out: MIC, broth microdilution, P. aeruginosa UNT 138-1 spontaneous mutant, AA139 selection 8X, plate 2, colony 1, drug-free passage 1",0.06 µg/mL
same,MIC,"P. aeruginosa; read-out: MIC, broth microdilution, P. aeruginosa UNT 138-1 spontaneous mutant, AA139 selection 8X, plate 2, colony 1, drug-free passage 5",0.12 µg/mL
same,BMD MIC,"S. aureus; S. aureus ATCC 25923 MSSA, CAMHB, mode of 6 replicates",0.06 µg/mL
same,MIC,"S. aureus; Staphylococcus aureus, ATCC25923 / MSSA, read-out: BMD MIC",0.06 µg/mL
same,MIC,S. enterica Typhi,0.125 µg/mL
same,Number of isolates with MIC 0.125 (MIC frequency distribution),[1],4
same,MIC50,[1]; [2],> 16 µg/mL
same,MIC90,[1]; [2],> 16 µg/mL
same,Number of isolates with MIC 0.03 (MIC frequency distribution),"[1]; A. baumannii, worldwide isolates 2011-2013, n = 108, count of isolates at MIC 0.03",0
same,Number of isolates with MIC 0.06 (MIC frequency distribution),"[1]; A. baumannii, worldwide isolates 2011-2013, n = 108, count of isolates at MIC 0.06",1
same,Number of isolates with MIC 0.25 (MIC frequency distribution),"[1]; A. baumannii, worldwide isolates 2011-2013, n = 108, count of isolates at MIC 0.25",10
same,Number of isolates with MIC 0.5 (MIC frequency distribution),"[1]; A. baumannii, worldwide isolates 2011-2013, n = 108, count of isolates at MIC 0.5",2
same,Number of isolates with MIC 1 (MIC frequency distribution),"[1]; A. baumannii, worldwide isolates 2011-2013, n = 108, count of isolates at MIC 1",1
same,Number of isolates with MIC 2 (MIC frequency distribution),"[1]; A. baumannii, worldwide isolates 2011-2013, n = 108, count of isolates at MIC 2",3
same,Number of isolates with MIC 4 (MIC frequency distribution),"[1]; A. baumannii, worldwide isolates 2011-2013, n = 108, count of isolates at MIC 4",2
same,Number of isolates with MIC 8 (MIC frequency distribution),"[1]; A. baumannii, worldwide isolates 2011-2013, n = 108, count of isolates at MIC 8",2
same,Number of isolates with MIC 16 (MIC frequency distribution),"[1]; A. baumannii, worldwide isolates 2011-2013, n = 108, count of isolates at MIC 16",1
same,Number of isolates with MIC 32 (MIC frequency distribution),"[1]; A. baumannii, worldwide isolates 2011-2013, n = 108, count of isolates at MIC 32",0
same,Number of isolates with MIC 64 (MIC frequency distribution),"[1]; A. baumannii, worldwide isolates 2011-2013, n = 108, count of isolates at MIC 64",0
same,Number of isolates with MIC 128 (MIC frequency distribution),"[1]; A. baumannii, worldwide isolates 2011-2013, n = 108, count of isolates at MIC 128",0
same,Number of isolates with MIC >16 (MIC frequency distribution),"[1]; A. baumannii, worldwide isolates 2011-2013, n = 108, count of isolates at MIC >16",82
same,Number of isolates with MIC >32 (MIC frequency distribution),"[1]; A. baumannii, worldwide isolates 2011-2013, n = 108, count of isolates at MIC >32",0
same,Number of isolates with MIC >128 (MIC frequency distribution),"[1]; A. baumannii, worldwide isolates 2011-2013, n = 108, count of isolates at MIC >128",0
same,Number of isolates with MIC ≤0.015 (MIC frequency distribution),"[1]; A. baumannii, worldwide isolates 2011-2013, n = 108, count of isolates at MIC ≤0.015",0
same,MIC90,[1]; Acinetobacter baumannii,> 16 µg/mL
same,MIC90,"[1]; US isolates 2010–2012, A. baumannii MDR, n = 19",>16 µg/mL
same,MIC90,"[1]; US isolates 2010–2012, A. baumannii XDR, n = 31",>16 µg/mL
